Measurements taken from US20230293521A1, “METHODS FOR SCREENING NOVEL CORONAVIRUS ANTIVIRALS AND METHODS OF USING ANTIVIRALS FOR THE TREATMENT OF CORONAVIRUS INFECTIONS” (priority 2020, published 2023).
Read-outs that look alike come from different tables or passages of the source.

How the values were obtained:
[1] = tested on: SARS-CoV-2; assay: microbe, parasite or virus in culture; format: cell-based
[2] = tested on: Vero E6 cells; details: for cytotoxicity (rapid decrease in resistance between 1 and 20 hpi): at 50 µM and 16.67 µM
[3] = tested on: SARS-CoV-2; assay: Time of addition studies, impedance assay in VeroE6 cells; format: cell-based; details: for inhibition of SARS-CoV-2 replication, single treatment 1 hour prior to infection, compound removed prior to infection: VPS34 inhibitors at 5 µM; for inhibition of SARS-CoV-2 replication, compound added up to 4 hpi: dosing at 2 hpi or 4 hpi, compound maintained
[4] = tested on: SARS-CoV-2 genomic RNA, subgenomic N RNA and NSP14 RNA; format: cell-based; details: for viral RNA levels: Calu-3, both MOI 0.01 and 1; for reduction in RNA synthesis compared with reduction in viral titers: Calu-3, 24 hpi
[5] = tested on: SARS-CoV-2 replication centers; assay: Confocal immunofluorescence of SARS-CoV-2 N and dsRNA replication centers in Calu-3 cells; format: cell-based; details: for distribution of SARS-CoV-2 N and dsRNA (replication center formation): Calu-3, pre-treated, MOI 3, fixed at 24 h.p.i.; for IC90: read-out: approximate IC90 (concentration used for pre-treatment)
[6] = tested on: VPS34; format: cell-based; details: Huh7, 24 hours treatment; VPS34-IN1 2 µM, PIK-III, SAR405, Compound 19 5 µM, Orlistat 200 µM
[7] = tested on: SARS-CoV-2; assay: microbe, parasite or virus in culture; format: cell-based; details: for IC50: Calu-3, pre-treated 1 hour, MOI 0.01, supernatants at 48 hpi
[8] = Severe acute respiratory syndrome coronavirus 2, Calu-3

Cc1nc(NC(=O)N2CCC[C@H]2C(N)=O)sc1-c1ccnc(C(C)(C)C(F)(F)F)c1 [BYL719]
decrease in viral titers [1]: 1 log
inhibition of SARS-CoV-2 replication [1]: little inhibition was detected

CCCCCCCCCCC[C@@H](C[C@@H]1OC(=O)[C@H]1CCCCCC)OC(=O)[C@H](CC(C)C)NC=O [Orlistat]
IC50 [1, 8]: 21.2 µM
early cytotoxic effects (1-20 hours post-treatment) [2]: neither Orlistat nor Triacsin C induced early cytotoxic effects
inhibition of SARS-CoV-2 replication, single treatment 1 hour prior to infection, compound removed prior to infection [3]: minimal efficacy
inhibition of SARS-CoV-2 replication, compound added up to 4 hpi [3]: remained inhibitory
viral RNA levels [4]: reduced RNA levels
distribution of SARS-CoV-2 N and dsRNA (replication center formation) [5]: loss of these distinct puncta and dispersion of dsRNA and SARS-CoV-2 N
IC90 [5, 8]: ~500 µM
effect on GFP-2xFYVE localization to endosomes [6]: did not affect GFP-2xFYVE localization

Nc1ncc(-c2ccnc(Nc3ccncc3)n2)c(CC2CC2)n1 [PIK-III]
IC50 [1, 8]: 0.12 µM
toxicity at the remaining concentrations [2]: no toxicity was observed
cytotoxicity (rapid decrease in resistance between 1 and 20 hpi) ([2]; Vero E6): induced rapid cytotoxicity
inhibition of SARS-CoV-2 replication, single treatment 1 hour prior to infection, compound removed prior to infection [3]: inhibited SARS-CoV-2 replication
inhibition of SARS-CoV-2 replication, compound added up to 4 hpi [3]: inhibition could be observed
IC90 [5, 8]: ~5 µM

CCCCCCCCCCCCCCOc1ccc(C(=O)O)o1 [TOFA, 5-(Tetradecyloxy)-2-furoic acid]
IC50 ([7]; Severe acute respiratory syndrome coronavirus 2): 1.34 µM
reduction in RNA synthesis compared with reduction in viral titers [4]: significantly less substantial than the reduction in viral titers
distribution of SARS-CoV-2 N and dsRNA (replication center formation) [5]: loss of these distinct puncta and dispersion of dsRNA and SARS-CoV-2 N

CC(C)(O)CNc1ncc(-c2ccnc(Nc3ccncc3)n2)c(CC2CC2)n1 [VPS34-IN1]
IC50 [1, 8]: 0.55 µM
toxicity at the remaining concentrations [2]: no toxicity was observed
cytotoxicity (rapid decrease in resistance between 1 and 20 hpi) ([2]; Vero E6): induced rapid cytotoxicity
inhibition of SARS-CoV-2 replication, single treatment 1 hour prior to infection, compound removed prior to infection [3]: inhibited SARS-CoV-2 replication
inhibition of SARS-CoV-2 replication, compound added up to 4 hpi [3]: inhibition could be observed
viral RNA levels [4]: reduced RNA levels
distribution of SARS-CoV-2 N and dsRNA (replication center formation) [5]: loss of these distinct puncta and dispersion of dsRNA and SARS-CoV-2 N
IC90 [5, 8]: ~5 µM

CCC/C=C/C/C=C/C=C/C=N/NN=O [Triacsin C]
IC50 [1]: 0.04 µM
early cytotoxic effects (1-20 hours post-treatment) ([2]; even at the highest concentrations of 50 µM and 500 µM, respectively, Vero E6): neither Orlistat nor Triacsin C induced early cytotoxic effects
inhibition of SARS-CoV-2 replication, single treatment 1 hour prior to infection, compound removed prior to infection [3]: minimal efficacy
inhibition of SARS-CoV-2 replication, compound added up to 4 hpi [3]: remained inhibitory
viral RNA levels [4]: reduced RNA levels
distribution of SARS-CoV-2 N and dsRNA (replication center formation) [5]: fewer but larger foci positive for both markers
IC90 ([5]; Calu-3): ~50 µM

COc1ccc(CN2CCNCC2)c(OC)c1OC [Trimetazidine]
inhibition of SARS-CoV-2 ([7]; Calu-3, MOI 0.01, 48 hpi): Neither compound showed any inhibition

CCCCCCCCCCCCCCC(Br)C(=O)O (stereo not drawn) [2-bromopalmitate]
concentrations at which infectious virus production was inhibited ([7]; Calu-3, MOI 0.01, 48 hpi): greater than 10 µM
IC50 [7]: 23 µM
viral RNA levels [4]: reduced RNA levels
distribution of SARS-CoV-2 N and dsRNA (replication center formation) [5]: fewer but larger foci positive for both markers

O=C(Nc1ccccc1)Nc1ccc(-c2ccc(C(=O)[C@@H]3CCC[C@H]3C(=O)O)cc2)cc1 [A922500]
IC50 [7]: 4.02 µM
reduction in RNA synthesis compared with reduction in viral titers [4]: significantly less substantial than the reduction in viral titers
distribution of SARS-CoV-2 N and dsRNA (replication center formation) [5]: loss of these distinct puncta and dispersion of dsRNA and SARS-CoV-2 N

CCOC(=O)[C@@]1(CCCCCCOc2ccc(Cl)cc2)CO1 [Etomoxir]
inhibition of SARS-CoV-2 ([7]; Calu-3, MOI 0.01, 48 hpi): Neither compound showed any inhibition

C=C1C(=O)O[C@H](CCCCCCCC)[C@H]1C(=O)O [C75, tetrahydro-4-methylene-2R-octyl-5-oxo-3S-furancarboxylic acid]
IC50 [7]: 22.8 µM

C[C@@H]1COCCN1c1cc(=O)n2c(n1)N(Cc1cncc(Cl)c1)[C@H](C(F)(F)F)CC2 [SAR405]
IC50 [1, 8]: 0.376 µM
